Results: article PMC11477000, “Enantioselective Binding of Proton Pump Inhibitors to Alpha1-Acid Glycoprotein and Human Serum Albumin—A Chromatographic, Spectroscopic, and In Silico Study” (International Journal of Molecular Sciences, 2024)
Several values for one entry are separate records, joined by “and”; a condition that tells them apart may be missing. Equal values may be shown once.

Legend:
[1] = molecular target: human serum albumin (HSA) (Homo sapiens, UniProt P02768); assay: Bound percentage by HPLC on HSA column, extrapolation to zero organic modifier; assay type: in vitro ADME; settings: for Bound percentage (b%), average: average of IPA, EtOH, MeOH
Sequence of human serum albumin (HSA) (P02768 25-609): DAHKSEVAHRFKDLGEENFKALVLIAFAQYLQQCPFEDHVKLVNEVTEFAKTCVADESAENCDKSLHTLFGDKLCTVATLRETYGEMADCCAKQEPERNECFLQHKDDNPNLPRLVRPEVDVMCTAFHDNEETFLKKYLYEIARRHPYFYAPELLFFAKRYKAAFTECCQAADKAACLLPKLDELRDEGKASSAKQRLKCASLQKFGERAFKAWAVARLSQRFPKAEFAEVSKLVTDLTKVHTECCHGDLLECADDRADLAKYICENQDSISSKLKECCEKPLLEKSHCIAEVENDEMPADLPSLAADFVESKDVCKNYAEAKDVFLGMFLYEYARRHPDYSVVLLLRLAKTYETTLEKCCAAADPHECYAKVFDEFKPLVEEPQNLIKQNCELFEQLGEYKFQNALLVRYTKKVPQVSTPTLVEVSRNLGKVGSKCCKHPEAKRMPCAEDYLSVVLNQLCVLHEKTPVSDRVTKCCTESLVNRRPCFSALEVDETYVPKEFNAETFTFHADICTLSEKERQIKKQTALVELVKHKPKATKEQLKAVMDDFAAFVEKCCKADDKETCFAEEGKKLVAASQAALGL
Procedure: Chromatographic columns containing proteins can be used to determine the percentage of drug binding. A plot of the natural logarithm of the retention factors against the proportion of organic modifiers was created. […] The intercept of these linear equations can be used to calculate the bound percentage according to Equation (4) (see in Section 3.2).
Chromatographic measurements were carried out on two separate HPLC systems. The AGP binding study was performed on a Waters 2695e chromatographic system paired with a Waters 2996 PDA detector, controlled by Empower 3 FR5 (Waters Corp., Milford, MA, USA), while the HSA binding study was performed on an Agilent 1100 HPLC system, consisting of an inline degasser (G1322A), a quaternary pump (G1311A), an automatic injector (G1329A) paired with sample thermostat (G1330A), a column thermostat (G1316A), and a diode array detector (G1315A) with Agilent Chemstation B04.03-SP2 software (Agilent, Bronnwald, Germany). For the binding studies, two protein-based chiral stationary phases were utilized. The chromatographic binding study for AGP was conducted on a ChromTech Chiral-AGP column (150 mm × 4.0 mm; ChromTech Ltd., Congleton, UK), while the binding study for HSA was performed on a Daicel Chiralpak HSA column (50 mm × 4.0 mm; Daicel Corp., Osaka, Japan). The detection wavelength was 210 nm for all measurements. The stock solutions of PPIs were prepared at a concentration of 1 mg/mL in MeOH. Subsequent dilutions were prepared using water. The injected samples were mixed and diluted from the stock solutions. The final concentration for the eutomer was 0.2 mg/mL, and for the distomer, it was 0.1 mg/mL. A volume of 2 μL was injected. To mitigate the instability of PPIs in aqueous solutions, the samples were kept at a temperature of 4 °C. Cooling the samples to 4 °C prevented significant decomposition for a period of 24 h. After 24 h, new samples were prepared for injection. Chromatographic parameters were calculated based on the following equations. The retention factor (k) was calculated as:(1) k=(tr−t0)/t0 where tr is the retention time of the investigated analyte, and t0 is the dead time, determined as the first peak appearance in the chromatogram. Resolution was calculated based on the following equation:(2) Rs=2(t2−t1)/(w1+w2) where t2 and t1 are the retention times of the second and first eluted enantiomers, respectively, while w is the peak width. The separation factor (α) was calculated as follows:(3) α=k2/k1 where k1 and k2 are the retention factors of the first- and second-eluting enantiomers, respectively. The k values were also used to calculate the protein-bound percentage (b%) using Equation (4):(4) b%=k/1+k×100

[2] = system: AGP; assay: UV titration (Benesi–Hildebrand) with AGP; assay type: binding, human; settings: human, pH 7.4, UV titration, n = 3; 1 μM AGP, pH 7.4 phosphate buffer, 24 °C, 278 nm; read-out: logKAGP ± Stdev (logarithm of stability constant) (converted)
Procedure: (§1) The UV-Vis absorption assay is a straightforward and relatively simple method to examine the interactions between small molecules and macromolecules. Changes in the structure of the protein caused by the interacting ligand can lead to alterations in the absorption spectrum. […] Fixed wavelength measurements were conducted at the absorption maxima of AGP and HSA. […] The change in the absorbance and wavelength maximum in the UV spectra during the titration refers to the complex formation between proteins and PPIs. The Benesi–Hildebrand method was used to determine the stability constants based on Equation (7).
(§2) The absorption spectra were recorded on a Jasco V-750 spectrophotometer (Jasco, Tokyo, Japan) at 24 °C using 1.0 cm path-length quartz cuvettes. Then, 1 μM HSA and AGP were dissolved in a sodium phosphate buffer solution (pH 7.4; 0.1 M) and their concentration was kept constant. The PPIs were dissolved in DMSO, and further diluted with the AGP or HSA solution. Next, 1000 μL of 1 μM HSA and AGP solutions was titrated with the PPI stock solution in 1 μL steps. The concentration of the PPIs was set to 4.00, 7.98, 11.96, 15.94, 19.90, 23.86, 27.81, and 31.75 μM. The binding constants were determined using the Benesi–Hildebrand equation:(7) A0/A−A0=εPPI/εAPPI−εPPI+εPPI/εAPPI−εPPI×1/K×[C] where A0 is the absorbance of the HSA or AGP at 278 nm, A is the absorbance of the formed complex also at 278 nm, εPPI is the extinction coefficient of the actual PPI, εAPPI is the extinction coefficient of the albumin or AGP and PPI complex, K is the binding coefficient, and [C] is the concentration of the investigated PPI. The plot of A0/A − A0 versus C^−1 has a slope of K^−1. All experiments were performed in triplicate.

[3] = molecular target: T1, HSA (Homo sapiens, UniProt P02768); assay: UV titration (Benesi–Hildebrand) with HSA; assay type: binding; settings: n = 3, 1 μM HSA, pH 7.4 phosphate buffer, 24 °C, 278 nm, read-out: logKHSA ± Stdev. (logarithm of stability constant) (converted)
T1 construct: purchased Sigma-Aldrich
T1 sequence (P02768 25-609): as above
Procedure: as §1, §2

[4] = molecular target: T1, HSA; settings: ref [41]; cited from earlier work
[5] = molecular target: BSA; settings: racemic, ref [39]; cited from earlier work
[6] = extrapolation to zero percent EtOH
[7] = extrapolation to zero percent IPA
[8] = extrapolation to zero percent MeOH

Cc1c(OCC(F)(F)F)ccnc1C[S@@+]([O-])c1nc2ccccc2[nH]1 [R-lansoprazole, dexlansoprazole]
Bound percentage (b%), average [1]: 92.45% and 92.45 ± 0.59%
Bound percentage (b%) [1, 6]: 92.69%
Bound percentage (b%) [1, 7]: 91.77%
Bound percentage (b%) [1, 8]: 92.89%
Kd [2]: 27.5 µM
Kd [3]: 60.3 µM

Cc1c(OCC(F)(F)F)ccnc1C[S@+]([O-])c1nc2ccccc2[nH]1 [S-lansoprazole]
Bound percentage (b%), average [1]: 94.64% and 94.64 ± 0.89%
Bound percentage (b%) [1, 6]: 94.85%
Bound percentage (b%) [1, 7]: 93.67%
Bound percentage (b%) [1, 8]: 95.42%
Kd [2]: 14.8 µM
Kd [3]: 21.9 µM

COc1ccc2[nH]c([S+]([O-])Cc3ncc(C)c(OC)c3C)nc2c1 (centres unmarked) [Omeprazole, omeprazole]
logK [4]: 4.61
logK [5]: 4.58
